How the values were obtained:
[1] = target: T1, kappa opioid receptor (KOR) (Homo sapiens, UniProt P41145); experiment: OPRKappa 1 Tango B-Arrestin Assay, antagonist mode (Tango OPRK1-bla U2OS cells, U50488 EC80 challenge); format: cell-based; details: for Selectivity (MOR/KOR): Kappa selectivity, MOR IC50 / KOR IC50; for IC50: antagonist mode, Tango OPRK1-bla U2OS cells, 6 nM U50488 challenge
T1 construct: host or cells: U2OS (Tango OPRK1-bla U2OS)
Text: OPRKappa 1 Tango B-Arrestin Assay Protocol-Antagonist Mode. […] The assay uses Tango OPRK1-bla U2OS cells which express OPRK1 linked to a GAL4-VP16 transcription factor via a TEV protease site. The cells also express a β-arrestin/TEV protease fusion protein and a β-lactamase (BLA) reporter gene under the control of a UAS response element. Stimulation of the OPRK1 receptor by agonist causes migration of the β-arrestin fusion protein to the GPCR, and through proteolysis liberates GAL4-VP16 from the receptor. The liberated VP16-GAL4 migrates to the nucleus, where it induces transcription of the BLA gene. BLA expression is monitored by measuring fluorescence resonance energy transfer (FRET) of a cleavable, fluorogenic, cell-permeable BLA substrate. As designed, test compounds that are OPRK1 antagonists inhibit agonist activation and migration of the fusion protein, thus preventing proteolysis of GAL4-VP16 and BLA transcription, leading to no increase in well FRET. Compounds were tested in quadruplicate using a 10-point, 1:3 dilution series starting at a nominal concentration of 10 micromolar.
The Tango OPRK1-U20S Dividing cell line was routinely cultured in 150 mm dishes at 37C, 5% CO2 and 95% relative humidity (RH).
On Day 1 of the assay, 16,000 cells in 10 μL of assay media (DMEM-Glutamax—with Sodium Pyruvate, 10% fetal bovine serum stripped with charcoal-dextran (CDS), 25 mM HEPES, 0.1 mM non-essential amino acids, antibiotic mix (penicillin streptomycin)) were seeded into each well of a 384 Greiner 788092 black low profile, clear bottom, low volume plate, and incubated 16-24 hours at 37° C., 5% CO2 and 95% (RH).
On Day 2, 50 nL of test compound in DMSO was added to the appropriate wells and plates were incubated for 30 min at 37° C. 5% CO2 and 95% (RH). Next was added 0.65 μL of commercially available U50488 OPRK1 agonist or DMSO in assay media: this EC80 Challenge consists of 0.6 μL of 111 nM U50488 to yield a final assay concentration of 6 nM). After incubation for 4 hours at 37° C., 5% CO2 and 95% (RH), 2.5 μL of LiveBLazer™FRET B/G (CCF4-AM) Mix (Soln.'s A,B,C,&D) was added to each well and incubated at room temperature in the dark for 2 hours. Well fluorescence was measured on Perkin Elmer's Envision using an Excitation filter 409 nm, Emission filters at 460 nm and […], bottom read.
(§1) The Percent Inhibition was calculated from the median ratio as follows:
• Tango™OPRK1-bla U20S Cells (Invitrogen K1576) • McCoy's 5A Medium, (Invitrogen 16600-082) • Dialyzed Fetal Bovine Serum, (Invitrogen 26400-036) • Non Essential Amino Acids 100× (Invitrogen part 11140-050) • HEPES (pH 7.3) 1M, (Invitrogen 15630-080) • Sodium Pyruvate 100× (Invitrogen 11360-070) • Penicillin Streptomycin, (Invitrogen 15640) • Trypsin 0.25% EDTA (Invitrogen 25200056) • DPBS without Calcium/Magnesium (Invitrogen 14190-136) • DMEM, High Glucose, GlutaMAX (Invitrogen 10569-010) • Fetal Bovine Serum, Charcoal Stripped (Invitrogen 12676-011) • DMSO Dry (Sigma D2650) • U50488 OPRK1 Agonist MW410.29 (Tocris 67198-19-0) • GNTI dihydrochloride OPRK1 Antagonist MW571.5 (Tocris 1282) • Nor-Binaltorphimine dihydrochloridc MW770.75 (Tocris 0347)
LiveBLAzere™-FRET/BG Loading Mix: (Invitrogen K1030 (5 mg)), composed of Solutions A, B, C, and D: • Solution A (6 μL): LiveBLAzer™-FRET/BG Substrate (CCF4-AM) • Solution B (60 μL) • Solution C (904 μL) • Solution C (must add 250 μl of 1N NaOH to 45 mL of Solution C prior to use) • Solution D (30 μL) [Probinicid] (Sigma P8161) make 200 mM stock in NaOH—H2O.

[2] = target: T2, mu opioid receptor (MOR) (Homo sapiens, UniProt P35372); experiment: OPRMu1 Discover X β-arrestin Assay, antagonist mode (U2OS cells, DAMGO EC80 challenge); format: cell-based
T2 construct: host or cells: U2OS (Discover X OPRMu1-U2OS, PathHunter)
Text: OPRMu1 Discover X—β-arrestin Assay—Antagonist Mode. […] This assay evaluates the OPRMu1 activation in membrane recruitment of β-arrestin. In addition, the assay evaluates GPCR-β-arrestin proximity using low affinity fragment complementation of beta-galactosidase (beta-gal). The assay employs U20S cells, which express OPRMu1 fused to the complementary beta-gal fragment (enzyme acceptor). As designed, compounds that act as antagonists will prevent receptor activation resulting in reduced well luminescence. Compounds were tested in quadruplicate using a 10-point, 1:3 dilution series starting at a nominal concentration of 10 micromolar.
The Discover X OPRMu1-U20S cell line was cultured in 150 mm dishes at 37° C., 5% CO2 and 95% relative humidity (RH).
On Day 1 of the assay, 5000 cells in 20 μL of assay buffer (Discover X's Cell Plating Reagent 5) were seeded into each well of a 384 Corning 3570 standard white plate, and incubated 16-24 hours at 37° C., 5% CO2 and 95% RH.
On Day 2, 100 nL of test compound in DMSO were added to the appropriate wells and the plates were then incubated for 30 min at 37° C. 5% CO2 and 95% RH. Next, 2.2 μL of DAMGO OPRMu1 agonist (commercially available) or DMSO in assay media. (The EC80 Challenge consists of 1.8 μL of 3.7 μM DAMGO, 0.4 μL of Assay Buffer, with a final assay concentration of 303 nM). After incubation for 3 hours at 37° C. 5% CO2, and 95% RH, 10 μL of Path Hunter Detection Mix was added to each well, and the plate was then incubated at room temperature in the dark for 1 hour. Well luminescence was measured on Perkin Elmer's Envision.
as §1
• DMEM Medium, (Invitrogen 11965) • F12 Medium, (Invitrogen 11765) • Heat Inactivated Fetal Bovine Serum, (Invitrogen 10082147) • Non Essential Amino Acids 100× (Invitrogen 11140-050) • HEPES (pH 7.3) 1M, (Invitrogen 15630-080) • Sodium Pyruvate 100× (Invitrogen 11360-070) • Penicillin Streptomycin, (Invitrogen 15640) • Trypsin 0.25% EDTA (Invitrogen 25200056) • DPBS without Calcium/Magnesium (Invitrogen 14190-136) • DMSO Dry (Sigma D2650) • DAMGO OPRMu1 Agonist MW513.19 (Sigma E7384-5MG) • B-Funaltrexamine Hydrochloride OPRM1 Antagonist MW (SIGMA 0003-2MG) • PathHunter Cell Plating 5 Reagent (Discover X 93-0563R5A) • Corning 3750 Standard 384 well white plate with lid.
PathHunter Detection Mix (DiscoverX 93-0001): 1 part Galacton Star/5 parts Emerald II/19 parts PH Cell Assay Buffer.

T1 sequence (P41145 whole entry): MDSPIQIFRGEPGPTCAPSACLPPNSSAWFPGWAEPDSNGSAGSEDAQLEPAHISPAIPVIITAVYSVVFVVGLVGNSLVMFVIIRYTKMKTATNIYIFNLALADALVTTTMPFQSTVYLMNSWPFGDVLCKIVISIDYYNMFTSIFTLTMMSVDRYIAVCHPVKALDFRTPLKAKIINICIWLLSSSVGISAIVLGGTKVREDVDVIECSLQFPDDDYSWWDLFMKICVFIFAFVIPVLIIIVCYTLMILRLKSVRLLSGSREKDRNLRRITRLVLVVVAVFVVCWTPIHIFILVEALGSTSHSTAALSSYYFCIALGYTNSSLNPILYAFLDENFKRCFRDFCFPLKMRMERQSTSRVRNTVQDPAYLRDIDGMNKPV
T2 sequence (P35372 whole entry): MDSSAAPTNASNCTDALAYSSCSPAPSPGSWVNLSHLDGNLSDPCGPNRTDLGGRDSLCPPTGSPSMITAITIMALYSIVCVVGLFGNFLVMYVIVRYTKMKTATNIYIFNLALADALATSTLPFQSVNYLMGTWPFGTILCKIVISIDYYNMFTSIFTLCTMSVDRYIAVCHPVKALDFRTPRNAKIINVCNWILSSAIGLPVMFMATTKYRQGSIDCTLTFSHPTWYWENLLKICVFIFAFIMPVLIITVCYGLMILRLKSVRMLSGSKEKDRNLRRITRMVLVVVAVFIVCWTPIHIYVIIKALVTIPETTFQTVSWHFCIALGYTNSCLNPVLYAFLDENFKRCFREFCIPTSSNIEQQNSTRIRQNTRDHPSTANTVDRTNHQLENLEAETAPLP

CCc1cc(F)c2nc(N3CCC(N[C@H]4CCOC[C@@H]4F)CC3)c(-c3cc(C)n(C)n3)c(C)c2c1 [Compound 3, 1-(3-(1,5-dimethyl-1H-pyrazol-3-yl)-6-ethyl-8-fluoro-4-methylquinolin-2-yl)-N-((3R,4S)-3-fluorotetrahydro-2H-pyran-4-yl)piperidin-4-amine]
Selectivity (MOR/KOR) [1]: +++ (between 100- to 1000-fold selective) | IC50 [1]: 0.001 to 0.01 µM | IC50 [2]: 0.1 to 1 µM

CCc1cc(F)c2nc(N3CCN(C(=O)[C@H](C(C)C)N4CCCC4)C[C@H]3C)c(-c3nc(C)no3)c(C)c2c1 [Compound 152]
Selectivity (MOR/KOR) [1]: +++ (between 100- to 1000-fold selective) | IC50 [1]: 0.001 to 0.01 µM | IC50 [2]: > 1 µM

CCc1cc(F)c2nc(N3CCN(C[C@H]4CCOC4)C[C@H]3C)c(-c3ccn(C)n3)c(C)c2c1 [Compound 58]
Selectivity (MOR/KOR) [1]: +++ (between 100- to 1000-fold selective) | IC50 [1]: 0.01 to 0.1 µM | IC50 [2]: > 1 µM

CCc1cc(F)c2nc(N3CC[C@H]4[C@H](CCN4[C@@H]4CCOC4)C3)c(-c3ccn(C)n3)c(C)c2c1 [Compound 125]
Selectivity (MOR/KOR) [1]: ++++ (more than 1000-fold selectivity over MOR) | IC50 [1]: 0.001 to 0.01 µM | IC50 [2]: > 1 µM

CCc1cc(F)c2nc(N3CC[C@H](N[C@@H]4CCOC4)C[C@H]3C)c(-c3ccn(C)n3)c(C)c2c1 [Compound 118]
Selectivity (MOR/KOR) [1]: ++++ (more than 1000-fold selectivity over MOR) | IC50 [1]: < 0.001 µM | IC50 [2]: 0.1 to 1 µM

CCc1cc(-c2ccnn2C)c2nc(N3CCC(N[C@H]4COC[C@H]4F)CC3)c(-c3ccn(C)n3)c(C)c2c1 [Compound 89]
Selectivity (MOR/KOR) [1]: ++ (between 10- and 100-fold selectivity) | IC50 [1]: 0.001 to 0.01 µM | IC50 [2]: > 1 µM

CCc1cc(F)c2nc(N3CCN(C[C@@H]4CCCO4)C[C@H]3CC)c(-c3nc(C)no3)c(C)c2c1 [Compound 35]
Selectivity (MOR/KOR) [1]: ++ (between 10- and 100-fold selectivity) | IC50 [1]: 0.01 to 0.1 µM | IC50 [2]: > 1 µM

CCc1cc(F)c2nc(N3CCN(C(=O)[C@H](CO)N(C)C)C[C@H]3C)c(-c3cc(C)no3)c(C)c2c1 [Compound 168]
Selectivity (MOR/KOR) [1]: +++ (between 100- to 1000-fold selective) | IC50 [1]: 0.001 to 0.01 µM | IC50 [2]: > 1 µM

CCc1cc(F)c2nc(N3CCN(CC(C)C)C[C@H]3C)c(-c3nc(C)no3)c(C)c2c1 [Compound 25]
Selectivity (MOR/KOR) [1]: +++ (between 100- to 1000-fold selective) | IC50 [1]: < 0.001 µM | IC50 [2]: > 1 µM

CCc1cc(F)c2nc(N3CCC(N[C@H]4CCCC(F)(F)C4)CC3)c(-c3cc(C)n(C)n3)c(C)c2c1 [Compound 67]
Selectivity (MOR/KOR) [1]: ++ (between 10- and 100-fold selectivity) | IC50 [1]: 0.001 to 0.01 µM | IC50 [2]: 0.01 to 0.1 µM

CCc1cc(F)c2nc(N3CC[C@H]4[C@H](CCN4[C@@H]4CCCOC4)C3)c(-c3ccn(C)n3)c(C)c2c1 [Compound 126]
Selectivity (MOR/KOR) [1]: ++ (between 10- and 100-fold selectivity) | IC50 [1]: 0.01 to 0.1 µM | IC50 [2]: > 1 µM

CCc1cc(F)c2nc(N3CC[C@H]4[C@H](CCN4C[C@@H]4CCOC4)C3)c(-c3ccn(C)n3)c(C)c2c1 (stereo in doubt) [Compound 129]
Selectivity (MOR/KOR) [1]: ++ (between 10- and 100-fold selectivity) | IC50 [1]: 0.01 to 0.1 µM | IC50 [2]: > 1 µM

CCc1cc(F)c2nc(N3CCN(/C(=N/C#N)NC)C[C@H]3C)c(-c3nc(C)no3)c(C)c2c1 [Compound 55]
Selectivity (MOR/KOR) [1]: ++ (between 10- and 100-fold selectivity) | IC50 [1]: 0.01 to 0.1 µM | IC50 [2]: > 1 µM

CCc1cc(F)c2nc(N3CCN(CC4CCOCC4)C[C@H]3C)c(-c3cc(C)no3)c(C)c2c1 [Compound 63, (R)-5-(6-ethyl-8-fluoro-4-methyl-2-(2-methyl-4-((tetrahydro-2H-pyran-4-yl)methyl)piperazin-1-yl)quinolin-3-yl)-3-methylisoxazole]
Selectivity (MOR/KOR) [1]: +++ (between 100- to 1000-fold selective) | IC50 [1]: 0.01 to 0.1 µM | IC50 [2]: > 1 µM

CCc1cc(F)c2nc(N3CCC(N[C@@H]4CCOC4)CC3)c(-c3cc(C)n(C)n3)c(C)c2c1 [Compound 66]
Selectivity (MOR/KOR) [1]: +++ (between 100- to 1000-fold selective) | IC50 [1]: 0.001 to 0.01 µM | IC50 [2]: 0.1 to 1 µM

CCc1cc(F)c2nc(N3CCN(C(=O)CN(C)C)C[C@H]3C)c(-c3cc(C)no3)c(C)c2c1 [Compound 181]
Selectivity (MOR/KOR) [1]: +++ (between 100- to 1000-fold selective) | IC50 [1]: 0.01 to 0.1 µM | IC50 [2]: > 1 µM

CCc1cc(F)c2nc(N3CC[C@@H](N[C@@H]4CCOC4)C[C@@H]3C)c(-c3ccn(C)n3)c(C)c2c1 [Compound 116]
Selectivity (MOR/KOR) [1]: ++++ (more than 1000-fold selectivity over MOR) | IC50 [1]: 0.001 to 0.01 µM | IC50 [2]: > 1 µM

From patent US20260115185A1, “QUINOLINE DERIVATIVES WHICH ACT AS KAPPA-OPIOID RECEPTOR ANTAGONISTS” (The Scripps Research Institute, priority 2023, published 2026)
